Source: patent US6342247B1, “Pharmaceutical compositions containing irbesartan” (Sanofi-Synthelabo, priority 1995, dated 2002)

Assay: Stability of tablets / hydrochlorothiazide degradation depending on excipients
Type: physicochemical
From the text: Under certain conditions, hydrochlorothiazide can hydrolyze to form, as by-product products, a free amine degradant and formaldehyde (D.S. Desai et al., International Journal of Phaxmaceutics, 107(2), 141-47 (1994)). The selection of excipients can impact the stability of hydrochlorothiazide. […] The aforementioned preferred compositions of the present invention containing irbesartan and hydrochlorothiazide are thus further advantageous since the excipients employed therein minimize or eliminate hydrochlorothiazide degradation.

degradation of hydrochlorothiazide (poloxamer in the composition): increase the degradation
stability of hydrochlorothiazide (pregelatinized starch as binder, compared with povidone): greater stability
SMILES: NS(=O)(=O)c1cc2c(cc1Cl)NCNS2(=O)=O [hydrochlorothiazide]
stability of hydrochlorothiazide (povidone as binder): formation of quantities of the free amine degradant
